The text below walks through data of publication PMC4254016 (Bioorganic & medicinal chemistry, 2014).

One assay deals with ΔpchE PAO1. The class given is cell-based, Pseudomonas aeruginosa. Particulars: high iron (200 µM FeCl3), 24 hrs.
The subject of the next assay is P. aeruginosa PAO1. Briefly: Bacterial growth inhibition, wildtype PAO1. The class given is cell-based, Pseudomonas aeruginosa. The note with it: high iron (200 µM FeCl3), 24 hrs.
The target of the next assay is salicylate synthase Irp9 (Yersinia enterocolitica, UniProt Q9X9I8). The class given is biochemical.
Assay [1] has as its target isochorismate-pyruvate lyase PchB (Pseudomonas aeruginosa, UniProt Q51507). The class given is biochemical.
In the next assay the target is chorismate mutase EcCM (Escherichia coli, UniProt P0A9J8). The class given is biochemical, E. coli.
The next assay has as its system ΔpvdA PAO1. The class given is cell-based, Pseudomonas aeruginosa. The note with it: high iron (200 µM FeCl3), 24 hrs.
A further assay concerns the target PchB. The note with it: read-out: Ki PchB; cited from earlier work.

Sequence of chorismate mutase EcCM (P0A9J8 1-92): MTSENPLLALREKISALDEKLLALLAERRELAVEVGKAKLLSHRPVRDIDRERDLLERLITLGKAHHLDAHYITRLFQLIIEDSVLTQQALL
Sequence of isochorismate-pyruvate lyase PchB (Q51507 whole entry): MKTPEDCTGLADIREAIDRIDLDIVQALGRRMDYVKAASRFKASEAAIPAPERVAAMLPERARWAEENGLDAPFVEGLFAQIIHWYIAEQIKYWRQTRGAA
Sequence of salicylate synthase Irp9 (Q9X9I8 1-434): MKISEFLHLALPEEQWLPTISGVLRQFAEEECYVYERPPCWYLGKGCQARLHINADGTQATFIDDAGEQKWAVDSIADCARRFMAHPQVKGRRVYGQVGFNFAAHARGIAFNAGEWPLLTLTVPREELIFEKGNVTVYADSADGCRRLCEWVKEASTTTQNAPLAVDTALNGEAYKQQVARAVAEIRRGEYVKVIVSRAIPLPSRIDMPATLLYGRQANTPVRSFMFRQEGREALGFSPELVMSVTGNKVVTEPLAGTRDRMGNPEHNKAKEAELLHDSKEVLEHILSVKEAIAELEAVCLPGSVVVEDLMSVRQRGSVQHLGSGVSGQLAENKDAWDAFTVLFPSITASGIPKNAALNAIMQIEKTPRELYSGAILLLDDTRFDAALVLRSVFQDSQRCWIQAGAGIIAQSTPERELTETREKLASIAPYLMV

For the compound `COC(=O)Oc1c([N+](=O)[O-])cc2oc(=O)sc2c1[N+](=O)[O-]` [Compound 10], the “EC50 growth inhibition ΔpchE p.a.” value with ΔpchE PAO1 is listed as “did not cause growth inhibition”. The “EC50 growth inhibition PAO1 p.a.” value in the assay with P. aeruginosa PAO1 is on record as “did not cause growth inhibition”. Further, the “mode of inhibition of Irp9” value at salicylate synthase Irp9 is “competitive inhibitor”. Moreover, the “mode of inhibition of PchB” value in assay [1] was “competitive inhibitors”. For the same compound, the “mode of inhibition of EcCM” value on chorismate mutase EcCM is reported as “competitive inhibitors”. Further, the “EC50 growth inhibition ΔpvdA p.a.” value with ΔpvdA PAO1 was “did not cause growth inhibition”.
As a reminder, the Ki is the equilibrium dissociation constant of an inhibitor or competing ligand from its target. Regarding `O=P(O)(O)C12CC3CC(CC(C3)C1)C2` [adamantane-1-phosphonate], the Ki at PchB is over 5 mM.
